Laboratory results from US8859215B2, “Cell binding assay” (GE Healthcare Bio-Sciences AB, priority 2011, dated 2014).
“Also recorded” adds a separate entry of the source.

Tested on: Multicellular Tumor Spheroids (MTS)
Test: Fluorescent cell binding assay: Cy3 Annexin V binding to drug treated cells, Western blotting, normalized to actin (apoptosis assay)
Type: cell-based
Description: Doxorubicin is an anti-cancer drugs aimed to inhibit uncontrolled cell proliferation by inducing apoptosis in cells. Multicellular Tumor Spheroids were treated with Doxorubicin and incubated with Cy 3 Annexin V. The cells are lysed and the proteins are separated and transferred to a membrane. Cy 3 Annexin V can be detected simultaneously with actin targeted by ECL Plex Cy5Western Blotting. The amount of Annexin V binding to the cells upon treatment can easily be quantified after normalization to the house-keeping protein actin.
Cancer cells, Multicellular Tumor Spheroids (MTS) (Sanitini et al. Critical Rev Oncol Hematol 2001, 36:75-87) were treated for 3 days with […] different concentrations (1 μM, 5 μM and 10 μM) of the cancer drug Doxorubicin. To determine the level of drug induced apoptosis the cells were incubated with Cy3 conjugated Annexin V. Non-bound Cy 3 Annexin V was washed away with PBS followed by cell lysis using mammalian cell protein extraction buffer (GE Healthcare). […]
The signals from bound Cy 3 Annexin V and Cy 5 actin are detected simultaneously by scanning the membrane in Cy3 and Cy5 channels using a Typhoon Imager (GE Healthcare, FIG. 2a). The image was analysed with Image Quant TL software (GE Healthcare). […] In this way any uneven sample loading is corrected for and very accurate quantification of the cells capacity to bind Annexin V is determined. […]

Structure (SMILES): COc1cccc2c1C(=O)c1c(O)c3c(c(O)c1C2=O)C[C@@](O)(C(=O)CO)C[C@@H]3O[C@H]1C[C@H](N)[C@H](O)[C@H](C)O1 [Doxorubicin]
- Annexin V binding to cells (signal ratio Cy3 Annexin V : Cy5 actin), indicating apoptosis (cancer cells (MTS) treated for 3 days with 1 μM, 5 μM and 10 μM, compared against control (no treatment)): dose dependent binding of Annexin V to treated cells; also recorded: dose dependent Annexin V binding to cells up to 5 μM
- Annexin V binding to cells (signal ratio Cy3 Annexin V : Cy5 actin) (treatment with 10 μM for 3 days, MTS cells): decrease of the Annexin V binding
